# Data published in patent publication US9422226B2 (Biogen MA Inc., priority 2011, dated 2016).
# Structures can show the parent of a compound that is named as a salt. Where two headings read alike, the source gives them in different places.
# Experiments:
# [1] = Methanolysis of dimethyl sulfate, 1H NMR kinetics; type: physicochemical; details: 65° C., 1.5 mole % DMS in dry methanol
# Protocol: Solutions of 1.5 mole % DMS and methanol were heated in a sealed tube to 35° C. and the time-dependent NMR spectra were collected for these mixtures. […] Use of NMR data helped confirm the reaction mechanism proposed in Scheme 2.
# The reaction proceeded more slowly at 35° C. but clearly confirms the formation of dimethyl ether (DME). The gradual downfield shift of the exchangeable OH resonance (4.8 ppm) supports the generation of a strong acid i.e., MMS (Scheme 5). Another set of duplicate experiments were performed under the reaction conditions at 65° C. (again spiking 1.5 mole % DMS into dry methanol with <0.01% water and no sulfuric acid) and monitoring the reaction for 60 minutes. This reaction was considered to be essentially irreversible under nominal plant process conditions since the reaction vessels are not pressurized and the resultant dimethyl ether would bubble out of solution.
# [2] = Hydrolysis of dimethyl sulfate, water spiking, 1H NMR kinetics; type: physicochemical; details: 65° C., water 10.5, 14.0, 17.7 mole % in DMS-methanol
# Protocol: The hydrolysis rate of dimethyl sulfate was determined by spiking known amounts of water into a mixture of DMS and methanol. Water was spiked into DMS-methanol solutions at three different levels—10.5, 14.0, and 17.7 mole % equivalents. The reactions were monitored for 60 minutes at 65° C. and the DMS peak integrals obtained.
# The rate constant for the hydrolysis of DMS (k−2) was derived by fitting all the data to a DynoChem model that used the time-dependant peak integral data.
# [3] = Hydrolysis of monomethyl sulfate, water spiking, 1H NMR; type: physicochemical
# Protocol: The rate constant of this reaction was measured by spiking water into solutions containing MMS (1.5 mole %) and monitoring the heated, sealed, vessel by ^1H NMR for 45 hours. Water was spiked into the matrix at two different levels—6 mole % and 12 mole %. […] In order to develop the larger model, the MMS equilibrium constant K (k1/k−1) was assigned a value of 999:1 in favor of the forward reaction, thus conservatively defining k−1 as 6.4×10^−8 L/mol-sec.
# [4] = cited from earlier work; for rate constant for the hydrolysis of MMS, extrapolated: at 25° C.
# [5] = Formation of monomethyl sulfate from sulfuric acid and methanol, 1H NMR kinetics; type: physicochemical; details: 65° C., dry methanol and concentrated sulfuric acid; ±7% RSD
# Protocol: All ^1H NMR spectra were obtained in and referenced against DMSO-d6 at 2.5 ppm using a Varian 500 MHz NMR. Concentrated sulfuric acid, fumaric acid, and dimethyl fumarate were obtained from the Sigma-Aldrich Chemical Company. Authentic standards of MMS (Na salt) and DMS were also obtained from Sigma-Aldrich. For spiking identification purposes, an authentic sample of MMS was prepared by passing a methanolic solution of the commercially available sodium salt through Amberlite FPA 22 resin (H form, 10 molar equivalents), and concentrating to an oil on a flash evaporator.
# All small scale reactions performed in the study were magnetically stirred and carried out using an insulated oil bath maintained at 65 deg±1° C. […]
# Sampling of reactions involved removal of a minimum of 150-400 μL of reaction solution, addition to DMSO-d6 (lock solvent) as required to make up a 650 μL solution in each NMR tube. Samples were chilled in an ice/water bath, and analyzed within 5-10 minutes of their preparation. […]
# Dry methanol (<0.01% water) was mixed with concentrated dry sulfuric acid and heated to 65° C. […] Equilibrium was reached within 1 hour, resulting in an essentially quantitative conversion of sulfuric acid to monomethyl sulfate. […] The second-order forward rate constant (k1) for the formation of MMS at 65° C. was determined to be 6.4×10^−5 L/mol-sec with a confidence interval of ±7% RSD.
# [6] = high doses; cited from earlier work
# [7] = Lab crystallization experiments with different cooling rates, mean particle size; type: physicochemical; details: isolated from the reaction mixture prior to milling
# Protocol: In the current process the mixture was cooled from reaction temperature 65° C. to the end temperature 20-25° C. in about 8 hours, stirred for 1-2 hours, and filtered to isolate the product.
# Table 2 highlights results from laboratory crystallization experiments with cooling rates chosen within manufacturing equipment capabilities.
# [8] = Mean particle size before and after jet milling; type: physicochemical
# Excerpt: These particles were milled to produce particles of a suitable size for consistent handling and uniformity for drug product processing. The target specification for particle size is ≧97% of the particles <250 μm. The dimethyl fumarate drug substance was milled consistently to meet this specification using a jet mill. […] It is evident that the milling operation is capable of producing a drug substance of suitable quality.
# [9] = Particle size of dimethyl fumarate by laser diffraction during and after drying; type: physicochemical
# Protocol: The particle sizes reported here are based on a measured distribution. In one embodiment, the particle sizes are measured using a Laser Diffraction technique that correlates light scattering to particle volume on which “effective length or effective diameter” is calculated. The distribution is based on a measurement of thousands of particles. Particles samples can be in dry form or in slurry. In one embodiment, the instrument used to determine particle size/distribution is a Beckman Coulter LS230 or a Malvern Mastersizer.
# The effect of temperature, pressure, and drying time on particle size was also investigated. […] Development studies examined the extent of sublimation under the drying conditions employed in the manufacturing plant. The first 3 entries in Table 5 are lab samples collected after 7, 24, and 48 hours drying time. The result from the three lab samples confirms that drying has no effects on the particle size. The particle size of lab samples were also compared to two representative plant samples which were dried for 48 hours and 72 hours. There is no change in particle size during drying.
# [10] = system: Ehrlich solid tumor cells; details: in mice; cited from earlier work
# [11] = system: serum proteins; details: cited from earlier work
compound,measurement,setting,value
"COS(=O)(=O)OC [DMS, dimethyl sulfate]",rate constant for the methanolysis of DMS (k3),[1],4.1e-05 M⁻¹ s⁻¹
same,rate constant for the hydrolysis of DMS (k−2),[2],0.00023 M⁻¹ s⁻¹
"COS(=O)(=O)O [MMS, monomethyl sulfate]",MMS level after water spiking,"[3]; MMS 1.5 mole %, water 6 and 12 mole %, heated sealed vessel, 45 hours",virtually unchanged
same,hydrolysis rate constant k−1,"[3]; from K (k1/k−1) assigned 999:1, conservative",6.4e-08 M⁻¹ s⁻¹
same,equilibrium constant for the hydrolysis of monomethyl sulfate,"[4]; T=100° C. to 150° C., sulfuric acid 1-4 M",0.027 M⁻¹
same,"rate constant for the hydrolysis of MMS, extrapolated","[4]; 1M HCl, T=40° C. to 100° C.",1.7e-08 M⁻¹ s⁻¹
same,"rate constant for the hydrolysis of MMS, extrapolated","[4]; pH=3 to 10, T=100° C. to 190° C.",2.2e-11 M⁻¹ s⁻¹
same,second-order forward rate constant (k1) for the formation of MMS,[5],6.4e-05 M⁻¹ s⁻¹
O=C(O)/C(O)=C(\O)C(=O)O [dihydroxy fumaric acid],side effects and toxicity,[6],high toxicity
COC(=O)/C=C/C(=O)OC [dimethyl fumarate],Mean Particle Size,[7]; cooling rate 5° C./h,475 μm
same,Mean Particle Size,[7]; cooling rate 8° C./h,448 μm
same,Mean Particle Size,[7]; cooling rate 15° C./h,475 μm
same,Mean Particle Size,[8]; after jet milling,20-40 μm
same,Mean Particle Size,"[8]; isolated from the dryer, before milling",550-650 μm
same,"Particle Size by Laser Diffraction, D10",[9]; drying time 7 h (lab),328 μm
same,"Particle Size by Laser Diffraction, D50",[9]; drying time 7 h (lab),566 μm
same,"Particle Size by Laser Diffraction, D90",[9]; drying time 7 h (lab),850 μm
same,"Particle Size by Laser Diffraction, D97",[9]; drying time 7 h (lab),987 μm
same,"Particle Size by Laser Diffraction, Mean",[9]; drying time 7 h (lab),524 μm
same,"Particle Size by Laser Diffraction, D10",[9]; drying time 24 h (lab),323 μm
same,"Particle Size by Laser Diffraction, D50",[9]; drying time 24 h (lab),562 μm
same,"Particle Size by Laser Diffraction, D90",[9]; drying time 24 h (lab),843 μm
same,"Particle Size by Laser Diffraction, D97",[9]; drying time 24 h (lab),979 μm
same,"Particle Size by Laser Diffraction, Mean",[9]; drying time 24 h (lab),521 μm
same,"Particle Size by Laser Diffraction, D10",[9]; drying time 48 h (lab),340 μm
same,"Particle Size by Laser Diffraction, D50",[9]; drying time 48 h (lab),567 μm
same,"Particle Size by Laser Diffraction, D90",[9]; drying time 48 h (lab),845 μm
same,"Particle Size by Laser Diffraction, D97",[9]; drying time 48 h (lab),980 μm
same,"Particle Size by Laser Diffraction, Mean",[9]; drying time 48 h (lab),535 μm
same,"Particle Size by Laser Diffraction, D10",[9]; drying time 48 h (plant),332 μm
same,"Particle Size by Laser Diffraction, D50",[9]; drying time 48 h (plant),561 μm
same,"Particle Size by Laser Diffraction, D90",[9]; drying time 48 h (plant),828 μm
same,"Particle Size by Laser Diffraction, D97",[9]; drying time 48 h (plant),956 μm
same,"Particle Size by Laser Diffraction, Mean",[9]; drying time 48 h (plant),536 μm
same,"Particle Size by Laser Diffraction, D10",[9]; drying time 72 h (plant),327 μm
same,"Particle Size by Laser Diffraction, D50",[9]; drying time 72 h (plant),562 μm
same,"Particle Size by Laser Diffraction, D90",[9]; drying time 72 h (plant),834 μm
same,"Particle Size by Laser Diffraction, D97",[9]; drying time 72 h (plant),963 μm
same,"Particle Size by Laser Diffraction, Mean",[9]; drying time 72 h (plant),524 μm
NC(=O)/C=C/C(N)=O [fumaramide],side effects and toxicity,[6],high toxicity
O=C(O)/C=C/C(=O)O [fumaric acid],growth of Ehrlich solid tumor cells,[10],impede the growth
N#C/C=C/C#N [fumaronitrile],side effects and toxicity,[6],high toxicity
COC(=O)/C=C/C(=O)O [methyl hydrogen fumarate],bound by serum proteins,[11],30%
